Test systems include DLD-1 colon; DMS 114 small cell lung; DMS 273 small cell lung; HL-60(TB) leukemia; KM20L2 colon; M19-MEL melanoma; NCI-H522 lung; OVCAR-8 ovarian; P388/ADR leukemia; SN12K1 renal; SNB-78 CNS; XF 498 CNS; HOP-18 NSCLC; P388 leukemia; LXFL 529 NSCLC; RXF-631 renal.
Assay in all cases: NCI tumour cell line growth inhibition, 48 h

Results on 8 compounds are retold here after PubChem BioAssay (NCI).

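Where inhibition never reached the appropriate level, the endpoint shown equals the highest concentration tested. Otherwise, values were interpolated linearly from a five-concentration, 48-hour dose response in 96-well plates. The concentration for full growth arrest is given as TGI.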 Bounds are passed on as bounds.

In the case of `COC1/C=C\C=C(/C)C(=O)NC2=CC(=O)C=C(C2=O)C(OC)C(C)CC(OC)C(OC)C(C)/C=C(/C)C1OC(N)=O` (stereo not drawn), the TGI with DLD-1 colon was 8.02 µM; in the assay on DMS 114 small cell lung, 10.1 µM; in the assay with DMS 273 small cell lung, 27.3 µM; with HL-60(TB) leukemia it was 0.554 µM; in the assay with KM20L2 colon it was 17.2 µM; in the assay on M19-MEL melanoma, 18 µM. Also, the TGI was 1.1 µM in the assay on NCI-H522 lung; 5.62 µM in the assay on OVCAR-8 ovarian; 3.47 µM in the assay with P388/ADR leukemia; 14.7 µM with SN12K1 renal; 17.2 µM in the assay on SNB-78 CNS; 4.83 µM in the assay with XF 498 CNS.
Turning to `C=CCn1c2ccccc2c2c(C)c3cnccc3c(C)c21`, the TGI is greater than 121 µM in the assay on DLD-1 colon; 37.7 µM in the assay with DMS 273 small cell lung; 11.9 µM with HL-60(TB) leukemia; greater than 125 µM with HOP-18 NSCLC; 112 µM with KM20L2 colon; 58 µM with M19-MEL melanoma. The TGI came to 37.2 µM in the assay on NCI-H522 lung; 40.4 µM in the assay on OVCAR-8 ovarian; 20.8 µM in the assay on P388 leukemia; 37.3 µM in the assay with P388/ADR leukemia; 52.5 µM in the assay with SN12K1 renal; 125 µM in the assay on SNB-78 CNS. For the same compound, the TGI with XF 498 CNS is 28.7 µM.
On to `Cc1ccc2nc3c(C(=O)NCCN(C)C)cccc3cc2c1`, for which the TGI in the assay on DLD-1 colon worked out at 8.85 µM; in the assay on DMS 114 small cell lung it was 5.32 µM; in the assay on DMS 273 small cell lung it was 6.02 µM; in the assay on HL-60(TB) leukemia it was 3.72 µM; in the assay on HOP-18 NSCLC it was 5.76 µM; with KM20L2 colon, 5.58 µM. Moreover, the TGI in the assay on M19-MEL melanoma was 4.66 µM; with OVCAR-8 ovarian, 4.87 µM; in the assay on P388/ADR leukemia it was 4.69 µM; in the assay on SN12K1 renal, 3.35 µM; in the assay with SNB-78 CNS, 15 µM; with XF 498 CNS, 3.67 µM.
As to `NCCCNCCSSCc1ccccc1CSSCCNCCCN`, the TGI in the assay on DLD-1 colon was greater than 100 µM; in the assay on DMS 114 small cell lung it was greater than 100 µM; in the assay on DMS 273 small cell lung, greater than 100 µM; in the assay with HL-60(TB) leukemia, 29.8 µM; in the assay on HOP-18 NSCLC, greater than 100 µM; with KM20L2 colon, greater than 100 µM. The TGI in the assay with LXFL 529 NSCLC was greater than 100 µM; in the assay on M19-MEL melanoma it was greater than 100 µM; with NCI-H522 lung, 26.7 µM; with OVCAR-8 ovarian it was greater than 100 µM; in the assay with RXF-631 renal, greater than 100 µM; with SNB-78 CNS, greater than 100 µM. Further, the TGI in the assay on XF 498 CNS is greater than 100 µM.
In the case of `CSCCC(NC(=O)C(Cc1ccccc1)NC(=O)CNC(=O)CNC(=O)C(N)Cc1ccc(O)cc1)C(=O)O` (stereo not drawn), the TGI in the assay with DMS 114 small cell lung is greater than 100 µM; in the assay with DMS 273 small cell lung it was greater than 100 µM; in the assay on HL-60(TB) leukemia it was greater than 100 µM; with HOP-18 NSCLC it was greater than 100 µM; in the assay with KM20L2 colon, greater than 29 µM; with M19-MEL melanoma it was greater than 100 µM. The TGI in the assay with NCI-H522 lung, in the assay with OVCAR-8 ovarian, in the assay with P388 leukemia, in the assay on P388/ADR leukemia, with SN12K1 renal and in the assay with SNB-78 CNS was greater than 100 µM in each case.
As to `CC(/C=C/c1ncccc1OCCCCCC(=O)O)=N\NC1=NCCN1`, the TGI in the assay with DLD-1 colon, with DMS 114 small cell lung, in the assay on DMS 273 small cell lung, in the assay with HL-60(TB) leukemia, in the assay on KM20L2 colon and with LXFL 529 NSCLC was greater than 100 µM each time. For the same compound, the TGI in the assay on M19-MEL melanoma, in the assay with NCI-H522 lung, in the assay on OVCAR-8 ovarian and with XF 498 CNS was greater than 100 µM throughout.
Regarding `COCCO`, the TGI with HL-60(TB) leukemia, in the assay with KM20L2 colon, in the assay on NCI-H522 lung, with OVCAR-8 ovarian, in the assay with P388 leukemia and with P388/ADR leukemia was greater than 100 µM in each case. Further, the TGI in the assay on SN12K1 renal was greater than 100 µM.
As to `C#CCNC(=O)CCC(N)C(=O)O` (stereo not drawn), the TGI in the assay with DLD-1 colon, with DMS 114 small cell lung, with DMS 273 small cell lung, in the assay with HL-60(TB) leukemia, in the assay on HOP-18 NSCLC and in the assay on KM20L2 colon was greater than 100 µM throughout. The TGI in the assay on M19-MEL melanoma, in the assay on NCI-H522 lung, with OVCAR-8 ovarian, with P388 leukemia, with P388/ADR leukemia and in the assay with SN12K1 renal was greater than 100 µM in each case. Moreover, the TGI in the assay with SNB-78 CNS and with XF 498 CNS was greater than 100 µM in each case.
